Converted amounts (≈) assume the structure as drawn. Square brackets hold non-standard residues; d marks the D form. Peptide text beside a SMILES is read from it. * marks the point of attachment. Myristoyl = CCCCCCCCCCCCCC(=O)*; Orn = NCCC[C@H](N)C(=O)O
Key:
Experiment in all cases: microbe, parasite or virus in culture
C. glabrata 2001 = assay type: cell-based, Candida glabrata
How it was run: (§1)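 Broth microdilution per CLSI M27 in RPMI1640, compounds serially diluted 2-fold from DMSO stock. Overnight YPD cultures washed, resuspended and adjusted to 5000 cfu/mL in RPMI as inoculum. Plates incubated 2 days at 37 °C.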

C. glabrata FKS1-S629P = assay type: cell-based, Candida glabrata; settings: compound alone; RPMI1640, 37 °C, 48 h
How it was run: as §1

C. glabrata FKS2-S663P = assay type: cell-based, Candida glabrata; settings: compound alone; RPMI1640, 37 °C, 48 h
How it was run: as §1

C. auris B11245 = assay type: cell-based, Candida auris; settings: B11245, 48 h
Procedure: (§2) All microdilution assays with fungi were carried out in accordance with CLSI protocols from M27 for yeasts and M38 for filamentous fungi, respectively, unless otherwise specified.[64],[65] Briefly, 96-well plates were charged with RPMI1640 media, with operating volume in the first column, 200 μL, and half operating volume, 100 μL, in the remaining wells. Drug stock solution in DMSO was aliquoted into the first well in each row. Half of the volume in the dosed well was serially diluted 2-fold until column 11. Column 11 was used as the negative growth control, and column 12 was used as the positive growth control. ON yeast cultures in YPD were washed twice in DD-H2O, resuspended in PBS, and adjusted to 5000 cfu/mL in RPMI. The 96-well plate was inoculated with 100 μL aliquots of cell suspension per well. Plates were incubated at 37 °C for 2 days.

A. fumigatus AF293 = assay type: cell-based, Aspergillus fumigatus; settings: AF293, 48 h
Procedure: as §2

Cn Crm1-oe = assay type: cell-based, Cryptococcus neoformans; settings: YPD + 0 mM Ca2+, 37 °C, 48 h
Procedure: (§3) Previous studies have shown that modifying microbiological media with salts such as CaCl2 can have a drastic effect on the growth of fungi and their responses to antifungals.[19],[35] In the case of CaCl2, the divalent cation, Ca^2+, is involved in fungal cell stress response. To understand how the peptide activity may involve calcium and stress response, the MICs of KKOO, KKOO-NH2, FLC, and CAS were assessed as a function of the calcium concentration in liquid YPD media. It was observed that calcium enrichment completely desensitized the wild-type strain to KKOO and KKOO-NH2, Tables 7 and 8, respectively. Effects of calcium enrichment on the susceptibility of Cryptococcus to CAS similar to literature values were recorded, Supporting Information, Table S7.[35]
as §2

Cn apt1Δ = assay type: cell-based, Cryptococcus neoformans; settings: for MIC: 37 °C, 48 h
Procedure: as §3, §2

Cn crm1Δ = assay type: cell-based, Cryptococcus neoformans; settings: YPD + 0 mM Ca2+, 37 °C, 48 h
Procedure: as §3, §2

With `CCCCCCCCCCCCCC(=O)N[C@@H](Cc1c[nH]c2ccccc12)C(=O)NCC(=O)NCC(=O)N[C@H](C(=O)N[C@@H](CCCN)C(=O)N[C@@H](CCCN)C(=O)N[C@@H](CC(N)=O)C(=O)N[C@@H](Cc1ccc(O)cc1)C(=O)N[C@@H](C)C(N)=O)[C@@H](C)CC` [KKOO-NH2] (Myristoyl-WGGI[Orn][Orn]NYA-NH2) the MIC (C. glabrata 2001; 2001, 48 h) was 8 µg/mL (≈ 6.57 µM), the “MIC (SAR screen peptides)” value (C. glabrata 2001; Table S1, unit and conditions not given (MICs elsewhere in μg/mL)) was 8 and the MIC (C. glabrata FKS1-S629P) was 8 µg/mL (≈ 6.57 µM). It also gave an MIC (C. glabrata FKS2-S663P) of 8 µg/mL (≈ 6.57 µM), an MIC (C. auris B11245) of 16 µg/mL (≈ 13.1 µM) and an MIC (A. fumigatus AF293) of 32 µg/mL (≈ 26.3 µM). For the same compound, the MIC (Cn Crm1-oe) was 4 µg/mL, the MIC (Cn apt1Δ; YPD + 0 mM Ca2+) was 4 µg/mL and the “increase of MIC” value (Cn apt1Δ; YPD +0 to +20 mM CaCl2) was 32 fold. For the same compound, the MIC (Cn apt1Δ; YPD + 2.5 mM Ca2+) was 16 µg/mL, the MIC (Cn apt1Δ; YPD + 5 mM Ca2+) was 64 µg/mL and the MIC (Cn apt1Δ; YPD + 10 mM Ca2+) was 64 µg/mL. For the same compound, the MIC (Cn crm1Δ) was 4 µg/mL.

From PMC11555678, “Improved Broad Spectrum Antifungal Drug Synergies with Cryptomycin, a Cdc50-Inspired Antifungal Peptide” (ACS Infectious Diseases, 2024)
